Results from paper PMC8231229, “New Trimethoprim-Like Molecules: Bacteriological Evaluation and Insights into Their Action” (Antibiotics, 2021).
Converted amounts (≈) assume the structure as drawn. Like-named read-outs stand apart in the source and are kept apart here. Peptide text beside a SMILES is read from it. * marks the point of attachment. βNA = c1ccc2cc(N*)ccc2c1

What was measured:
Serratia marcescens NIMA = test: MIC by microdilution (EUCAST), planktonic bacteria; assay type: cell-based; conditions: tested alone
Protocol: (§1) The minimum inhibitory concentrations (MICs) of colistin, TMP, 1a, and 1b were determined using the microdilution method, according to EUCAST recommendations.

P. aeruginosa PAO1 [1] = test: MIC in presence or absence of efflux pump inhibitor PAßN; assay type: cell-based; conditions: colistin alone
Protocol: The efflux pump inhibitor phenyl-arginyl-β-naphthylamide (PaβN) was purchased from Sigma-Aldrich Chemicals (Madrid, Spain). The MIC of the TMP analogues in combination with SMX in the presence of 20 µg PaβN/mL was determined in P. aeruginosa PAO1 using the microdilution method.

E. coli ATCC 25922 = test: Real-time growth curves with sublethal concentrations; assay type: cell-based; conditions: 0.11 µM colistin alone
Protocol: (§2) Additionally, the effect of TMP-SMX and the GBBR analogues in combination with sublethal concentrations of colistin was assessed in growth curves of E. coli ATCC 25922, P. aeruginosa PAO1, and S. marcescens NIMA. Exponential-phase cultures were adjusted to 5 × 10^6 CFU/mL in a final volume of 10 mL of TSB and the antimicrobials were added at sublethal concentrations. Growth was monitored using RTS-1C real-time cell growth loggers (Biosan SIA, Riga, Latvia) in cells incubated for 24 h at 37 °C with shaking at 2000 rpm. Growth was measured every 10 min as the optical density (OD 850 nm).

P. aeruginosa PAO1 [2] = test: as above; assay type: cell-based; conditions: 0.87 µM colistin alone
Protocol: as §2

[3] = tested on: Escherichia coli ATCC 25922; design: method as in PMID 31334221; conditions: tested alone; cited from earlier work
[4] = tested on: Pseudomonas aeruginosa PAO1; design: method as in PMID 31334221; conditions: tested alone; cited from earlier work
E. coli 220560529 = test: Susceptibility test in TMP-resistant strain; assay type: cell-based; conditions: data not shown
Protocol: as §1

S. epidermidis 220560752 = test: Susceptibility test in TMP-resistant strain; assay type: cell-based; conditions: data not shown
Protocol: as §1

E. coli DHFR = target: T1, E. coli DHFR (Escherichia coli, UniProt P0ABQ4); test: Dihydrofolate reductase assay; assay type: biochemical; conditions: inhibitor 5 µM, 30 min incubation
T1 construct: gift of E. Shakhnovich and J.V. Rodrigues (Harvard University)
T1 sequence (P0ABQ4 whole entry): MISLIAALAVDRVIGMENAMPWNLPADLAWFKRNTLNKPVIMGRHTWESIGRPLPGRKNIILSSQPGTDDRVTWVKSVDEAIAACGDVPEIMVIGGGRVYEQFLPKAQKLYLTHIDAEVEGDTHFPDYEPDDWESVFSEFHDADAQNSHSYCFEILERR
Protocol: The DHFR assay is based on the reduction of 7,8-dihydrofolate to 5,6,7,8-tetrahydrofolate catalyzed by DHFR and using NADPH as a cofactor. Purified E. coli DHFR was kindly provided by E. Shakhnovich and J.V. Rodrigues (Harvard University, Cambridge, MA, USA). The DHFR assay kit (CS0340) was purchased from Sigma-Aldrich. The assay was performed in 96-well flat-bottom plates (Corning Costar 3606, NY, USA) with the protocol adjusted to accommodate a final reaction volume of 200 µL. DHFR was diluted to a final concentration of 0.03 µg/mL. The inhibitory effect of compounds 1a and 1b was tested, with TMP serving as the control. All three drugs were used at a concentration of 5 µM, which was higher than the respective MICs (Table 1). To determine the effect of the concentration of the DHFR cofactor NADPH on inhibition, a dilution series of NADPH in assay buffer was carried out to obtain a concentration range between 60 µM and 240 µM. A dilution series of H2F was similarly carried out in assay buffer to obtain a concentration range from 50 µM to 200 µM. In all assays, the enzyme was mixed with the different inhibitors and incubated for 30 min before the enzymatic reaction was initiated by the addition of NADPH and H2F. The reaction was conducted at 37 °C and monitored by the decrease in absorbance at 340 nm (indicative of a decrease in the NADPH concentration). […]

HepG2 cells = test: Cytotoxicity assay (resazurin); assay type: cell-based, human
Protocol: (§3) The cytotoxicity assay was carried out in the human hepatocellular carcinoma cell line Hep G2 ATCC and in murine L-929 fibroblasts (NCTC clone 929, ECACC 88102702), based on the experiments described by Vinuesa et al.. The cells were obtained from Dr. Ricardo Pérez-Tomás (Cancer Cell Biology, University of Barcelona). The cytotoxicity of TMP and compounds 1a and 1b was determined by measuring the intracellular reduction of resazurin sodium salt (Sigma-Aldrich, St. Louis, MO, USA). HepG2 and L-929 cells were grown in RPMI 1640 and MEM medium, respectively (Biochrom AG, Berlin, Germany), supplemented with 10% fetal bovine serum. Cells from pre-confluent cultures were harvested with trypsin-EDTA and maintained at 37 °C and 5% CO2. […] Twenty µL of resazurin was then added to each well and the plates were incubated under the same conditions. Fluorescence was measured at an excitation wavelength of 530 nm and an emission wavelength of 590 nm using a scanning multi-well spectrophotometer (FLUOstar OPTIMA, BMG Labtech, Germany). Cytotoxicity was calculated as follows:(1) % Cytotoxicity = 100−(AT−ADB)/(AC−AMB) ×100 where AT is the absorbance of the treated cells, ADB the absorbance of the drug blank control, AC the absorbance of the untreated cells, and ACB the absorbance of the medium blank.

[5] = Cytotoxicity assay (resazurin); assay type: cell-based, murine; conditions: mouse, L-929 fibroblasts; 32 μg/mL, 24 h; percentage of dead cells
Protocol: as §3

L-929 cells = test: Cytotoxicity assay (resazurin); assay type: cell-based, murine
Protocol: as §3

[6] = Storage stability checked by HPLC-MS; assay type: physicochemical; conditions: for stability of stock solutions in DMSO: kept in the cold; for time after synthesis without signs of decomposition: stored at −20 °C under an inert atmosphere, HPLC-MS
Protocol: Compounds 1a and 1b were prepared as previously reported, from the interaction of TMP with aldehydes and isocyanides in acetonitrile under Yb(OTf)3 catalysis. The compounds were purified by chromatography and stored at −20 °C under an inert atmosphere. Stock solutions in DMSO were stable when kept in the cold. The integrity of these compounds and solutions thereof was confirmed by HPLC-MS (column: ZORBAX Extend-C18 3.5 μm 2.1 × 50 mm, Agilent; mobile phase A: H2O + 0.05% HCOOH; mobile phase B: ACN + 0.05% HCOOH; 10 min; 35 °C). There were no signs of decomposition at least 1 year after their chemical synthesis.

bacterial growth = tested on: bacterial growth; design: method as in PMID 23722434; conditions: concentrations up to 40 µg/mL; cited from earlier work
S. marcescens NIMA = test: Real-time growth curves with sublethal concentrations; assay type: cell-based; conditions: with SMX (1:20), in the presence of colistin
Protocol: as §2

[7] = Cytotoxicity assay (resazurin); assay type: cell-based, human; conditions: human, HepG2 cells; 32 μg/mL, 24 h; percentage of dead cells
Protocol: as §3

[8] = Homo sapiens, HepG2, 24 h, read-out: IC50 (drug concentration needed to inhibit cell growth by 50%)
[9] = Mus musculus, L929, 24 h, read-out: IC50 (drug concentration needed to inhibit cell growth by 50%)

| Molecule | MIC [3] [µM] | MIC [4] [µM] | MIC (Serratia marcescens NIMA; Serratia marcescens) [µM] | effect in TMP-resistant strain (E. coli 220560529) | effect in TMP-resistant strain (S. epidermidis 220560752) | inhibition at 5 µM (E. coli DHFR) [%] | IC50 (HepG2 cells; [8]) [µg/mL] | cytotoxicity at 24 h, 32 μg/mL [5] [%] | IC50 (L-929 cells; [9]) [µg/mL] | stability of stock solutions in DMSO [6] | time after synthesis without signs of decomposition [6] | cytotoxicity at 24 h, 32 μg/mL [7] [%] | other results |
| --- | --- | --- | --- | --- | --- | --- | --- | --- | --- | --- | --- | --- | --- |
| colistin | 0.43 | 1.73 | – | – | – | – | – | – | – | – | – | – | MIC (Serratia marcescens NIMA): >886.23 µM; MIC With PAßN (P. aeruginosa PAO1 [1]; PAßN 20 µg/mL): 1.73 µM; MIC Without PAßN (P. aeruginosa PAO1 [1]): 1.73 µM; delay in growth (E. coli ATCC 25922): 10 h; delay in growth (P. aeruginosa PAO1 [2]): 2 h |
| COc1cc(Cc2cn3c(NC(C)(C)C)c(C)nc3nc2N)cc(OC)c1OC [Compound 1a] | 1.25 (≈ 0.499 µg/mL) | >80.10 | 80.1 (≈ 32 µg/mL) | no significant effect | no significant effect | > 80 | > 32 | 0 | > 32 | stable | at least 1 year | – | – |
| NC(N)=NCCC[C@H](NC(=O)[C@@H](N)Cc1ccccc1)C(=O)Nc1ccc2ccccc2c1 [PAßN, phenylalanine arginyl ß-naphthylamide] (H-Phe-Arg-βNA) | – | – | – | – | – | – | – | – | – | – | – | – | effect on bacterial growth (bacterial growth): no detectable effect on bacterial growth |
| COc1cc(Cc2cn3c(NC4CCCCC4)c(-c4cccnc4)nc3nc2N)cc(OC)c1OC [Compound 1b] | 1.02 (≈ 0.498 µg/mL) | >65.50 | 16.4 (≈ 8 µg/mL) | no significant effect | no significant effect | > 80 | > 32 | 0 | > 32 | stable | at least 1 year | 0.11 | effect on growth curve (S. marcescens NIMA): complete abolition of growth |
| COc1cc(Cc2cnc(N)nc2N)cc(OC)c1OC [TMP, Trimethoprim] | 0.43 (≈ 0.125 µg/mL) | >110.22 | 13.8 (≈ 4 µg/mL) | – | – | – | – | 0.8 | – | – | – | 0.35 | IC50 (HepG2 cells; Homo sapiens, HepG2, 24 h; read-out: IC50 (drug concentration needed to inhibit cell growth by 50%)): > 32 µg/mL; IC50 (L-929 cells; Mus musculus, L929, 24 h; read-out: IC50 (drug concentration needed to inhibit cell growth by 50%)): > 32 µg/mL |
